system: HCT116; experiment: In Vitro cytotoxicity measured by the cell colony formation assay; assay type: cell-based, human; conditions: HCT116 colony formation; 72 h with drug, colonies counted after 7 days; ID50 = concentration producing 50% inhibition of colony formation; read-out: IN VITRO ID 50 HCT116
In short: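 Four hundred cells per dish in McCoy's 5a medium with 10% FBS were allowed to attach for 5 h at 37 °C. They were then exposed to compound for 72 h at 37 °C, added as a 10× stock made fresh in medium. After HBSS rinsing and refeeding, colonies were counted after 7 days.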

`CCCC(=O)N[C@@H](c1cccs1)[C@@H](O)C(=O)O[C@H]1C[C@@]2(O)[C@@H](OC(=O)c3ccccc3)[C@@H]3[C@]4(OC(C)=O)CO[C@@H]4C[C@H](O)[C@@]3(C)C(=O)[C@H](OC(=O)CCC)C(=C1C)C2(C)C` [Compound 3148] and `CC=CC(=O)NC(c1cccs1)C(O)C(=O)OC1CC2(O)C(OC(=O)c3ccccc3)C3C4(OC(C)=O)COC4CC(O)C3(C)C(=O)C(OC(=O)CCC)C(=C1C)C2(C)C` (stereo not shown) [Compound 3595] cannot be ordered by IC50: under 1 nM for the first, under 1 nM for the second.

same assay, conditions: Homo sapiens, HCT-116; read-out: IN VITRO ID 50 HCT116

`CC(=O)O[C@@]12CO[C@@H]1C[C@H](O)[C@@]1(C)C(=O)[C@H](OC(=O)C3CC3)C3=C(C)[C@@H](OC(=O)[C@H](O)[C@@H](NC(=O)OC(C)C)c4cccs4)C[C@@](O)([C@@H](OC(=O)c4ccccc4)[C@H]21)C3(C)C` [Compound 3071] and `CC(=O)O[C@@]12CO[C@@H]1C[C@H](O)[C@@]1(C)C(=O)[C@H](OC(=O)C3CC3)C3=C(C)[C@@H](OC(=O)[C@H](O)[C@@H](NC(=O)OCC(C)C)c4cccs4)C[C@@](O)([C@@H](OC(=O)c4ccccc4)[C@H]21)C3(C)C` [Compound 3129] cannot be ordered by IC50: under 1 nM for the first, under 10 nM for the second.

`CCCC(=O)O[C@H]1C(=O)[C@@]2(C)[C@H]([C@H](OC(=O)c3ccccc3)[C@]3(O)C[C@H](OC(=O)[C@H](O)[C@@H](NC(=O)OCC)c4cccs4)C(C)=C1C3(C)C)[C@]1(OC(C)=O)CO[C@@H]1C[C@@H]2O` [Compound 3096] and `CCOC(=O)N[C@@H](c1cccs1)[C@@H](O)C(=O)O[C@H]1C[C@@]2(O)[C@@H](OC(=O)c3ccccc3)[C@@H]3[C@]4(OC(C)=O)CO[C@@H]4C[C@H](O)[C@@]3(C)C(=O)[C@H](OC(=O)CC)C(=C1C)C2(C)C` [Compound 3370] cannot be ordered by IC50: under 1 nM for the first, under 1 nM for the second.

`CC(=O)O[C@@]12CO[C@@H]1C[C@H](O)[C@@]1(C)C(=O)[C@H](OC(=O)C3CC3)C3=C(C)[C@@H](OC(=O)[C@H](O)[C@@H](NC(=O)OCC(C)C)c4ccco4)C[C@@](O)([C@@H](OC(=O)c4ccccc4)[C@H]21)C3(C)C` [Compound 3102] and `CC(=O)O[C@@]12CO[C@@H]1C[C@H](O)[C@@]1(C)C(=O)[C@H](OC(=O)C3CC3)C3=C(C)[C@@H](OC(=O)[C@H](O)[C@@H](NC(=O)OC(C)C)c4ccco4)C[C@@](O)([C@@H](OC(=O)c4ccccc4)[C@H]21)C3(C)C` [Compound 3853] cannot be ordered by IC50: under 1 nM for the first, under 1 nM for the second.

`CCCC(=O)N[C@@H](c1cccs1)[C@@H](O)C(=O)O[C@H]1C[C@@]2(O)[C@@H](OC(=O)c3ccccc3)[C@@H]3[C@]4(OC(C)=O)CO[C@@H]4C[C@H](O)[C@@]3(C)C(=O)[C@H](OC(=O)C3CC3)C(=C1C)C2(C)C` [Compound 3132] and `CC(=O)O[C@@]12CO[C@@H]1C[C@H](O)[C@@]1(C)C(=O)[C@H](OC(=O)C3CC3)C3=C(C)[C@@H](OC(=O)[C@H](O)[C@@H](NC(=O)c4ccco4)c4cccs4)C[C@@](O)([C@@H](OC(=O)c4ccccc4)[C@H]21)C3(C)C` [Compound 3297] cannot be ordered by IC50: under 1 nM for the first, under 1 nM for the second.

`CCC(=O)O[C@H]1C(=O)[C@@]2(C)[C@H]([C@H](OC(=O)c3ccccc3)[C@]3(O)C[C@H](OC(=O)[C@H](O)[C@@H](NC(=O)OCC(C)C)c4cccs4)C(C)=C1C3(C)C)[C@]1(OC(C)=O)CO[C@@H]1C[C@@H]2O` [Compound 3163] and `CCCC(=O)O[C@H]1C(=O)[C@@]2(C)[C@H]([C@H](OC(=O)c3ccccc3)[C@]3(O)C[C@H](OC(=O)[C@H](O)[C@@H](NC(=O)OCC(C)C)c4cccs4)C(C)=C1C3(C)C)[C@]1(OC(C)=O)CO[C@@H]1C[C@@H]2O` [Compound 3265] cannot be ordered by IC50: under 1 nM for the first, under 10 nM for the second.

`CCCC(=O)O[C@H]1C(=O)[C@@]2(C)[C@H]([C@H](OC(=O)c3ccccc3)[C@]3(O)C[C@H](OC(=O)[C@H](O)[C@@H](NC(=O)c4ccccc4)c4ccco4)C(C)=C1C3(C)C)[C@]1(OC(C)=O)CO[C@@H]1C[C@@H]2O` [Compound 3204] and `CCCC(=O)O[C@H]1C(=O)[C@@]2(C)[C@H]([C@H](OC(=O)c3ccccc3)[C@]3(O)C[C@H](OC(=O)[C@H](O)[C@@H](NC(=O)c4ccccc4)c4cccs4)C(C)=C1C3(C)C)[C@]1(OC(C)=O)CO[C@@H]1C[C@@H]2O` [Compound 3258] cannot be ordered by IC50: under 1 nM for the first, under 1 nM for the second.

`CCCC(=O)N[C@@H](c1ccco1)[C@@H](O)C(=O)O[C@H]1C[C@@]2(O)[C@@H](OC(=O)c3ccccc3)[C@@H]3[C@]4(OC(C)=O)CO[C@@H]4C[C@H](O)[C@@]3(C)C(=O)[C@H](OC(=O)CC)C(=C1C)C2(C)C` [Compound 3219] and `CCCC(=O)N[C@@H](c1ccco1)[C@@H](O)C(=O)O[C@H]1C[C@@]2(O)[C@@H](OC(=O)c3ccccc3)[C@@H]3[C@]4(OC(C)=O)CO[C@@H]4C[C@H](O)[C@@]3(C)C(=O)[C@H](OC(=O)CCC)C(=C1C)C2(C)C` [Compound 3222] cannot be ordered by IC50: under 1 nM for the first, under 1 nM for the second.

`CCCC(=O)O[C@H]1C(=O)[C@@]2(C)[C@H]([C@H](OC(=O)c3ccccc3)[C@]3(O)C[C@H](OC(=O)[C@H](O)[C@@H](NC(=O)c4ccco4)c4cccs4)C(C)=C1C3(C)C)[C@]1(OC(C)=O)CO[C@@H]1C[C@@H]2O` [Compound 3352] and `CCCC(=O)O[C@H]1C(=O)[C@@]2(C)[C@H]([C@H](OC(=O)c3ccccc3)[C@]3(O)C[C@H](OC(=O)[C@H](O)[C@@H](NC(=O)c4cccs4)c4ccco4)C(C)=C1C3(C)C)[C@]1(OC(C)=O)CO[C@@H]1C[C@@H]2O` [Compound 3656] cannot be ordered by IC50: under 1 nM for the first, under 1 nM for the second.

`CCC(=O)O[C@H]1C(=O)[C@@]2(C)[C@H]([C@H](OC(=O)c3ccccc3)[C@]3(O)C[C@H](OC(=O)[C@H](O)[C@@H](NC(=O)OC(C)C)c4cccs4)C(C)=C1C3(C)C)[C@]1(OC(C)=O)CO[C@@H]1C[C@@H]2O` [Compound 3361] and `CCCC(=O)O[C@H]1C(=O)[C@@]2(C)[C@H]([C@H](OC(=O)c3ccccc3)[C@]3(O)C[C@H](OC(=O)[C@H](O)[C@@H](NC(=O)OC(C)C)c4cccs4)C(C)=C1C3(C)C)[C@]1(OC(C)=O)CO[C@@H]1C[C@@H]2O` [Compound 3909] cannot be ordered by IC50: under 1 nM for the first, under 1 nM for the second.

`CCCC(=O)O[C@H]1C(=O)[C@@]2(C)[C@H]([C@H](OC(=O)c3ccccc3)[C@]3(O)C[C@H](OC(=O)[C@H](O)[C@@H](NC(=O)c4cccs4)c4cccs4)C(C)=C1C3(C)C)[C@]1(OC(C)=O)CO[C@@H]1C[C@@H]2O` [Compound 3408] and `CCC(=O)O[C@H]1C(=O)[C@@]2(C)[C@H]([C@H](OC(=O)c3ccccc3)[C@]3(O)C[C@H](OC(=O)[C@H](O)[C@@H](NC(=O)c4cccs4)c4cccs4)C(C)=C1C3(C)C)[C@]1(OC(C)=O)CO[C@@H]1C[C@@H]2O` [Compound 3425] cannot be ordered by IC50: under 1 nM for the first, under 1 nM for the second.

`CCCC(=O)O[C@H]1C(=O)[C@@]2(C)[C@H]([C@H](OC(=O)c3ccccc3)[C@]3(O)C[C@H](OC(=O)[C@H](O)[C@@H](NC(=O)OC(C)C)c4ccco4)C(C)=C1C3(C)C)[C@]1(OC(C)=O)CO[C@@H]1C[C@@H]2O` [Compound 3417] and `CCC(=O)O[C@H]1C(=O)[C@@]2(C)[C@H]([C@H](OC(=O)c3ccccc3)[C@]3(O)C[C@H](OC(=O)[C@H](O)[C@@H](NC(=O)OC(C)C)c4ccco4)C(C)=C1C3(C)C)[C@]1(OC(C)=O)CO[C@@H]1C[C@@H]2O` [Compound 3522] cannot be ordered by IC50: under 1 nM for the first, under 1 nM for the second.

`CC(=O)O[C@@]12CO[C@@H]1C[C@H](O)[C@@]1(C)C(=O)[C@H](OC(=O)C3CC3)C3=C(C)[C@@H](OC(=O)[C@H](O)[C@@H](NC(=O)c4cccs4)c4cccs4)C[C@@](O)([C@@H](OC(=O)c4ccccc4)[C@H]21)C3(C)C` [Compound 3453] and `CC(=O)O[C@@]12CO[C@@H]1C[C@H](O)[C@@]1(C)C(=O)[C@H](OC(=O)C3CC3)C3=C(C)[C@@H](OC(=O)[C@H](O)[C@@H](NC(=O)c4cccs4)c4ccco4)C[C@@](O)([C@@H](OC(=O)c4ccccc4)[C@H]21)C3(C)C` [Compound 3663] cannot be ordered by IC50: under 1 nM for the first, under 1 nM for the second.

`CCCC(=O)O[C@H]1C(=O)[C@@]2(C)[C@H]([C@H](OC(=O)c3ccccc3)[C@]3(O)C[C@H](OC(=O)[C@H](O)[C@@H](NC(=O)c4ccccc4)C4CC4)C(C)=C1C3(C)C)[C@]1(OC(C)=O)CO[C@@H]1C[C@@H]2O` [Compound 3482] and `CCCC(=O)O[C@H]1C(=O)[C@@]2(C)[C@H]([C@H](OC(=O)c3ccccc3)[C@]3(O)C[C@H](OC(=O)[C@H](O)[C@@H](NC(=O)c4ccco4)c4ccco4)C(C)=C1C3(C)C)[C@]1(OC(C)=O)CO[C@@H]1C[C@@H]2O` [Compound 3686] cannot be ordered by IC50: under 1 nM for the first, under 1 nM for the second.

`CCOC(=O)N[C@@H](c1ccco1)[C@@H](O)C(=O)O[C@H]1C[C@@]2(O)[C@@H](OC(=O)c3ccccc3)[C@@H]3[C@]4(OC(C)=O)CO[C@@H]4C[C@H](O)[C@@]3(C)C(=O)[C@H](OC(=O)CC)C(=C1C)C2(C)C` [Compound 3535] and `CCCC(=O)O[C@H]1C(=O)[C@@]2(C)[C@H]([C@H](OC(=O)c3ccccc3)[C@]3(O)C[C@H](OC(=O)[C@H](O)[C@@H](NC(=O)OCC)c4ccco4)C(C)=C1C3(C)C)[C@]1(OC(C)=O)CO[C@@H]1C[C@@H]2O` [Compound 3693] cannot be ordered by IC50: under 1 nM for the first, under 1 nM for the second.

`CCC(=O)O[C@H]1C(=O)[C@@]2(C)[C@H]([C@H](OC(=O)c3ccccc3)[C@]3(O)C[C@H](OC(=O)[C@H](O)[C@@H](NC(=O)c4cccs4)c4ccco4)C(C)=C1C3(C)C)[C@]1(OC(C)=O)CO[C@@H]1C[C@@H]2O` [Compound 3644] and `CCC(=O)O[C@H]1C(=O)[C@@]2(C)[C@H]([C@H](OC(=O)c3ccccc3)[C@]3(O)C[C@H](OC(=O)[C@H](O)[C@@H](NC(=O)c4ccco4)c4ccco4)C(C)=C1C3(C)C)[C@]1(OC(C)=O)CO[C@@H]1C[C@@H]2O` [Compound 3818] cannot be ordered by IC50: under 1 nM for the first, under 1 nM for the second.

`CCOC(=O)N[C@@H](c1ccco1)[C@@H](O)C(=O)O[C@H]1C[C@@]2(O)[C@@H](OC(=O)c3ccccc3)[C@@H]3[C@]4(OC(C)=O)CO[C@@H]4C[C@H](O)[C@@]3(C)C(=O)[C@H](OC(=O)C3CC3)C(=C1C)C2(C)C` [Compound 3677] and `CC(=O)O[C@@]12CO[C@@H]1C[C@H](O)[C@@]1(C)C(=O)[C@H](OC(=O)C3CC3)C3=C(C)[C@@H](OC(=O)[C@H](O)[C@@H](NC(=O)c4ccco4)c4ccco4)C[C@@](O)([C@@H](OC(=O)c4ccccc4)[C@H]21)C3(C)C` [Compound 3866] cannot be ordered by IC50: under 1 nM for the first, under 1 nM for the second.
